# In US7973079B2, “Methods and compounds for treating retinol-related diseases” (Revision Therapeutics, Inc., priority 2007, dated 2011):
# Tests used:
# [1] = biological target: RBP4-TTR interaction (Homo sapiens, UniProt P02753); assay: High throughput in vitro assay detecting inhibition of RBP-TTR interaction; type: binding; conditions: Table 1, read-out: Apparent 50 IC
# Protocol: In some embodiments, the modulators disclosed herein are also used in in vitro assays for detecting perturbations in RBP or TTR activity. For example, the modulator is added to a sample comprising RBP, TTR and retinol to detect complex disruption. A component, for example, RBP, TTR, retinol or the modulator, is labeled to determine if disruption of complex formation occurs. For example, complex formation and subsequent disruption is detected and/or measured through conventional means, such as the sandwich assays disclosed above. Other detection systems are also used to detect modulation of RBP or TTR binding, for example, FRET detection of RBP-TTR-retinol complex formation.
# The optimal dose of compounds of Formula (I) or (II) to block formation of A2E in abca4-1 mice is determined using a standard dose escalation study. In order to determine the range of doses which will be employed, a high throughput, in vitro assay which detects modulators that inhibit RBP-TTR interaction has been developed. […] An illustrative in vivo approach, utilizing a compound having the structure of Formula (I) or (II) is presented below.
# [2] = tested on: panel of six cytochrome P450 isozymes; assay: Cytochrome P450 inhibition profile (panel of six isozymes); type: in vitro ADME
# [3] = tested on: RBP4+/+, ABCA4−/− mice; assay: Serum retinol in HPR-treated mice compared with genetic reduction of RBP4; type: in vivo; conditions: HPR for a 28-day period, ABCA4+/− mice (>50% reduction)
# Excerpt: FIG. 6. Genetic modulation of RBP4 in abca4 mutant mice: effects on serum retinol, RBP4 and toxic retinal fluorophores. A line of mice which expresses heterozygous mutations in RBP4 and ABCA4 (RBP4+/−, ABCA4+/−) was generated in order to determine if genetic reduction of RBP4 would be sufficient to reduce serum levels of retinol, RBP4 and toxic retinal fluorophores within the RPE. Serum retinol concentrations in RBP4+/−, ABCA4+/− mice were reduced by greater than 50% compared to mice with the normal complement of RBP (RBP4+/+, ABCA4−/−). […] Reductions in serum retinol correlated directly with reductions in RBP4, as determined by immunoblot analysis. Western blot identification of RBP4 in the various mouse lines is shown in panel B. Histological analysis were also performed. Tissue sections from RBP4+/+, ABCA4+/− mice (panel C), RBP4+/−, ABCA4+/− (panel D) and RBP4+/+, ABCA4+/+ (panel E) were analyzed by fluorescence microscopy.
# Exploration of a non-pharmacological means of reducing lipofuscin fluorophores in order to validate our therapeutic approach based upon reduction of RBP levels in a patient will be performed. In this study, RBP protein levels will be reduced through genetic manipulation. Two new lines of mice expressing heterozygous mutations in retinol binding protein (RBP4) are generated. […]
Compound,IC50 [1] [nM],inhibition at 2 μM [2] [%],degree of serum retinol reduction [3]
CC(C)(C)c1cc(Cl)ccc1OCCCCC(=O)Nc1ccc(CC(=O)O)cc1 [2-(4-(5-(2-tert-butyl-4-chlorophenoxy)pentanamido)phenyl)acetic acid],1000,< 10,
CC(C)(C)c1cc(Cl)ccc1OCC1CCC(C(=O)Nc2ccc(O)cc2)C1 (centres unmarked) [3-((2-tert-butyl-4-chlorophenoxy)methyl)-N-(4-hydroxyphenyl)cyclopentanecarboxamide],,< 10,
CC(C)(C)c1cc(Cl)ccc1OCC1CCCC(C(=O)O)C1 (centres unmarked) [3-((2-tert-butyl-4-chlorophenoxy)methyl)cyclohexanecarboxylic acid],160,< 10,
CC(C)(C)c1cc(Cl)ccc1OCC1CCC(C(=O)O)C1 (centres unmarked) [3-((2-tert-butyl-4-chlorophenoxy)methyl)cyclopentanecarboxylic acid],400,< 10,
CC(C)(C)c1cc(Cl)ccc1OCCCC(=O)O [4-(2-tert-butyl-4-chlorophenoxy)butanoic acid],1000,~15,
CC(C)(C)c1cc(Cl)ccc1OCC1CCC(C(=O)Nc2ccc(C(=O)O)cc2)C1 (centres unmarked) [4-(3-((2-tert-butyl-4-chlorophenoxy)methyl)cyclopentanamido)benzoic acid],,< 10,
CC(C)(C)c1cc(Cl)ccc1OCCCCC(=O)Nc1ccc(C(=O)O)cc1 [4-(5-(2-tert-Butyl-4-chlorophenoxy)pentanamido)benzoic acid],,< 10,
CC(C)(C)c1cc(Cl)ccc1OCCCCC(=O)Nc1ccc(O)cc1 [5-(2-tert-Butyl-4-chlorophenoxy)-N-(4-hydroxyphenyl)pentanamide],1000,~50,
CC(C)(C)c1cc(Cl)ccc1OCCCCC(=O)O [5-(2-tert-Butyl-4-chlorophenoxy)pentanoic Acid],100,≤ 10,
CC(C)(C)c1cc(Cl)ccc1OCCCCCCC(=O)Nc1ccc(O)cc1 [7-(2-tert-butyl-4-chlorophenoxy)-N-(4-hydroxyphenyl)heptanamide],1000,~40,
CC(C)(C)c1cc(Cl)ccc1OCCCCCCC(=O)O [7-(2-tert-butyl-4-chlorophenoxy)heptanoic acid],500,~15,
"CC1=C(/C=C/C(C)=C/C=C/C(C)=C/C(=O)Nc2ccc(O)cc2)C(C)(C)CCC1 [HPR, fenretinide]",,,comparable
